Test results reported in PubChem BioAssay (NCI).
“And” between values parts separate entries of the source, which are not always exact repeats. Identical values can stand only once.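 Values below derive from 48-hour exposures of cells grown in 96-well plates, with endpoints linearly interpolated between the two concentrations bracketing the appropriate inhibition level. GI50 = concentration required for 50% inhibition of growth. The concentration for full growth arrest is given as TGI.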

Tests used:
Experiment in all cases: NCI tumour cell line growth inhibition, 48 h
786-0 renal = tested on: 786-0 renal
A498 renal = tested on: A498 renal
MALME-3M melanoma = tested on: MALME-3M melanoma
NCI/ADR-RES ovarian = tested on: NCI/ADR-RES ovarian
OVCAR-3 ovarian = tested on: OVCAR-3 ovarian
RPMI-8226 leukemia = tested on: RPMI-8226 leukemia
RXF 393 renal = tested on: RXF 393 renal
SF-539 CNS = tested on: SF-539 CNS
SW-620 colon = tested on: SW-620 colon
UACC-257 melanoma = tested on: UACC-257 melanoma

Compound | GI50 (786-0 renal) | TGI (786-0 renal) | GI50 (A498 renal) | TGI (A498 renal) [µM] | GI50 (MALME-3M melanoma) | TGI (MALME-3M melanoma) | GI50 (NCI/ADR-RES ovarian) | TGI (NCI/ADR-RES ovarian) [µM] | GI50 (OVCAR-3 ovarian) | TGI (OVCAR-3 ovarian) | GI50 (RPMI-8226 leukemia) | TGI (RPMI-8226 leukemia) | GI50 (RXF 393 renal) | TGI (RXF 393 renal) | GI50 (SF-539 CNS) | TGI (SF-539 CNS) | GI50 (SW-620 colon) | TGI (SW-620 colon) [µM] | GI50 (UACC-257 melanoma) [µM] | TGI (UACC-257 melanoma) [µM]
Cc1ccc2c(-c3ccnc(Nc4ccccc4)n3)c(-c3ccc(F)cc3)nn2n1 | 4.84 µM | 20.8 µM | 4.78 µM | 21.5 | 13.9 µM | > 25 µM | 6.64 µM | > 25 | 4.98 µM | > 22.8 µM | 10.5 µM | > 25 µM | 3.77 µM | > 18.7 µM | 6.99 µM | > 19.3 µM | 8.37 µM | > 25 | 6.85 | 15.1
Cc1ccc(Cc2cnc(NC(=O)/C=C/c3cccc(C)c3)s2)cc1 | 0.389 µM | 4.04 µM | 0.277 µM | 3.14 | 0.19 µM | 51.9 µM | 0.135 µM | 2.06 | 0.0634 µM | 0.725 µM | 0.175 µM | 10.5 µM | 0.106 µM | 0.671 µM | 0.149 µM | 0.9 µM | 0.0731 µM | > 100 | > 42.3 | > 100
CC(=C/C=C/C=C(C)\C=C\C=C(\C)C(=O)O)/C=C/C=C(/C)C(=O)O | – | > 100 µM | – | > 100 | – | > 100 µM | – | > 100 | – | > 100 µM | – | > 100 µM | – | > 100 µM | – | > 100 µM | – | > 100 | – | > 100
COc1cc2ncn(-c3cc(O[C@@H](C)c4ccccc4Cl)c(C(N)=O)s3)c2cc1OC | 4.43 µM | > 25 µM | 1.08 µM | 13.8 | 13.7 µM | > 25 µM | 0.429 µM | > 25 | 0.513 µM | > 17.4 µM | 1.49 µM | > 19 µM | 0.346 µM | > 22.9 µM | 0.832 µM | > 25 µM | 0.612 µM | > 25 | 3.1 | > 21.9
C=C(CN1CCN(c2cccc(C(F)(F)F)n2)CC1)c1ccc(C(=O)Nc2ccccc2N)cc1 | 1.97 µM and 0.705 µM | 70 µM and 14 µM | 0.875 µM and 0.261 µM | – | 1.06 µM and 0.338 µM | > 100 µM and 28.2 µM | 0.641 µM and 0.4 µM | > 100 | 0.258 µM and 0.261 µM | 1.12 µM and 0.982 µM | 0.534 µM and 0.277 µM | 4.19 µM and 1.33 µM | 0.672 µM and 2.12 µM | 26.1 µM and > 100 µM | 0.978 µM and 0.331 µM | 16.8 µM and 2.05 µM | 0.528 µM and 0.416 µM | > 100 | – | > 100
COc1cc2c(cc1OC)-c1ccc3cc4c(cc3c1N(CCCn1ccnc1)C2)OCO4 | 6.04 µM | 32.8 µM | 7.66 µM | 27.1 | 2.68 µM | 10.7 µM | > 100 µM | > 100 | 2.26 µM | 5.97 µM | 1.31 µM | 5.62 µM | 3.43 µM | 16.3 µM | 2.11 µM | 7.36 µM | 1.58 µM | 21 | 5.9 | 23.3
O=C(O)CCCSc1ccccc1 | – | > 100 µM | – | > 100 | – | > 100 µM | – | > 100 | – | > 100 µM | – | > 100 µM | – | > 100 µM | – | > 100 µM | – | > 100 | – | > 100
C/C(=N\Nc1cc(C)c2ccccc2n1)c1ccccn1 | 0.135 µM | 1.27 µM | 0.284 µM | 3.04 | 0.155 µM | 1.49 µM | 0.0717 µM | 1.42 | < 0.0194 µM | 3.51 µM | 0.112 µM | 2.01 µM | 0.29 µM | 1.82 µM | 0.0778 µM | 0.693 µM | – | 1.98 | 0.0874 | 0.452
C=C1C(=O)O[C@H]2[C@H]1CC/C(COC(=O)C(=O)c1cn(C)c3ccc(Cl)cc13)=C\CC[C@@]1(C)O[C@@H]21 | 1.2 µM | 2.53 µM | 2.17 µM | 3.86 | 1.74 µM | 4.28 µM | 1.45 µM | 4.7 | 0.315 µM | 1.03 µM | 0.306 µM | 1.19 µM | 1.06 µM | 2.33 µM | 1.66 µM | 3.36 µM | 0.857 µM | 10.9 | 1.65 | 3.55
CS(=O)(=O)CCNCc1ccc(-c2ccc3ncnc(Nc4ccc(OCc5ccccc5)c(Br)c4)c3c2)o1 | 4.69 µM | 10.2 µM | 4.35 µM | 16.3 | 5.37 µM | 10.4 µM | 6.87 µM | > 25 | 9.22 µM | > 25 µM | 8.67 µM | > 24.1 µM | 3.71 µM | 8.19 µM | 5.41 µM | 13.2 µM | 5.29 µM | 11.1 | 4.77 | 9.3
COc1ccc(-c2cc(-c3ccc(Cl)cc3)nc(SCCCC(=O)NO)n2)cc1 | 0.594 µM | 4.52 µM | 1.38 µM | 3.28 | 1.86 µM | 7.01 µM | 0.314 µM | 1.28 | 0.406 µM | 2.11 µM | 0.771 µM | > 24.9 µM | 0.359 µM | 1.52 µM | 1.36 µM | 3.78 µM | 0.553 µM | 3.29 | 2.31 | 10.4
CCCN(CCC)c1ccc(/C=C/c2ccc3cc(OCC)ccc3n2)cc1 | > 100 µM | > 100 µM | > 100 µM | > 100 | > 100 µM | > 100 µM | > 100 µM | > 100 | > 100 µM | > 100 µM | 6.29 µM | > 100 µM | 5.23 µM | 64.1 µM | > 100 µM | > 100 µM | > 100 µM | > 100 | > 100 | > 100
N#Cc1ccc2c(c1)C(=O)c1c-2n(CCCCl)c(=O)c2cc([N+](=O)[O-])ccc12 | 2.46 µM | 7.88 µM | 22.8 µM | 55.3 | 24 µM | > 100 µM | 6 µM | > 100 | 8.77 µM | > 100 µM | 3.44 µM | 20.6 µM | 11.9 µM | 37.7 µM | 2.62 µM | 10.5 µM | 0.801 µM | > 100 | > 100 | > 100
COc1cc(N2CCC(N3CCN(C)CC3)CC2)ccc1Nc1ncnc(Nc2ccccc2S(=O)(=O)C(C)C)n1 | 8.55 µM | 22.9 µM | 2.3 µM | 17.2 | 3.12 µM | 20.2 µM | 7.26 µM | 42.6 | 7.33 µM | 28.1 µM | 10.9 µM | 41.9 µM | 3.42 µM | 17.3 µM | 3.46 µM | 14.6 µM | 3.68 µM | 39.5 | 8.42 | 27.3
C[C@@H](O)[C@H](NC(=O)N[C@@H](CC(N)=O)c1nc([C@@H](N)CO)no1)C(=O)O | > 100 µM | > 100 µM | > 100 µM | > 100 | > 100 µM | > 100 µM | > 100 µM | > 100 | > 100 µM | > 100 µM | > 100 µM | > 100 µM | > 100 µM | > 100 µM | > 100 µM | > 100 µM | > 100 µM | > 100 | > 100 | > 100
Cc1ccc(NC2=C(Cl)C(=O)N(Cc3ccc(Cl)cc3)C2=O)cc1O | 0.753 µM | 18.8 µM | 11.9 µM | 25.9 | 5.23 µM | 26.9 µM | 9.24 µM | 37.8 | 8.88 µM | 38.5 µM | 2.04 µM | 14.8 µM | 10.4 µM | 36.4 µM | 3.1 µM | 16.2 µM | 7.76 µM | 66.6 | 13 | 28.7
C=C1C(=O)O[C@H]2[C@H]1CC/C(COC(=O)c1cc3ccccc3o1)=C\CC[C@@]1(C)O[C@@H]21 | 1.81 µM | 3.45 µM | 12.9 µM | 26 | 1.66 µM | 3.27 µM | 2.59 µM | 10.1 | 0.485 µM | 1.72 µM | 0.715 µM | 3.44 µM | 1.43 µM | 2.87 µM | 1.45 µM | 2.84 µM | 0.662 µM | 2.49 | 1.52 | 3.04
COc1ccc(-c2oc(=O)ccc2-c2cc(OC)c(OC)c(OC)c2)cc1O | 2.62 µM | > 75.7 µM | 2.57 µM | 28.1 | – | > 100 µM | 1.48 µM | > 100 | 0.463 µM | 3.55 µM | 1.4 µM | 6.19 µM | 0.795 µM | 3.76 µM | 1.37 µM | > 29.9 µM | 0.612 µM | > 47.6 | 9.87 | > 100
Nc1c2c(c(O)c3c1=C(CO)C=N3)=NCCS2 | 0.317 µM | 1.23 µM | 0.148 µM | 0.285 | 0.0347 µM | 0.108 µM | 0.256 µM | 0.824 | 0.164 µM | 0.35 µM | 0.583 µM | 3.12 µM | 0.289 µM | 1.24 µM | 0.165 µM | 0.301 µM | 0.202 µM | 0.391 | 0.142 | 0.288
